From paper PMC12332667, “Role of Structural Modifications in Peptidomimetic Compounds as Potential Antimicrobial Agents against Staphylococcus aureus and Streptococcus pyogenes: Balancing Bioavailability, Safety, and Antimicrobial Activity” (ACS Omega, 2025)
Converted amounts (≈) assume the structure as drawn.

Assays:
E. faecalis c.i. = experiment: MIC/MBC broth microdilution, E. faecalis; type: cell-based, Enterococcus faecalis
Protocol: (§1) S. aureus (ATCC 29213),S. pyogenes (ATCC 19615),Streptococcus agalactiae (ATCC 27956),Escherichia coli (ATCC 25922),Proteus vulgaris (ATCC 6896),K. pneumoniae (ATCC 700603) andP. aeruginosa (ATCC 10145) reference strains, as well asStaphylococcus cohnii, Enterococcus faecalis, Staphylococcus schleiferi, Staphylococcus intermedius and Streptococcus mutans clinical isolates, were used to test the antibacterial activity of the peptidomimetics. Bacteria were aerobically cultured for 18 h at 37 °C in plates with sterilized brain heart infusion (BHI) broth (Sigma-Aldrich, USA) media mixed with bacteriological agar (Sigma-Aldrich, USA) using the streak plate method. After 18 h, BHI broth was inoculated to 0.5 on the McFarland scale and diluted to approximately 10^5 CFU/mL. To achieve a final stock concentration of 1024 μg/mL, the peptidomimetics were dissolved in sterile water, and 5–10% of absolute ethanol or dimethyl sulfoxide (DMSO) was added. The antibacterial activities were determined by using the standard broth microdilution method of the National Committee for Clinical Laboratory Standards. The process involved adding serially diluted peptidomimetics to consecutive wells of a 96-well microtiter plate (Brand, Germany) holding media with microorganisms. The inoculated plates treated with peptides were then placed in an incubator at 37 °C for 18 h. The MIC value was determined as the lowest concentration of peptidomimetic at which there was no obvious growth (equal or more than 90% of the untreated sample). […] The lowest concentration yielding growth in no more than 3 colonies, corresponding to at least a 99.9% kill rate, was taken as MBC. Each biological replicate included control wells with the addition of water, DMSO, and ethanol as respective solvent controls. All experiments were conducted with consistent adherence to growth and sterility controls and were performed at least in technical triplicate with three biological repeats.

S. intemrdius c.i. = experiment: MIC/MBC broth microdilution, S. intermedius; type: cell-based, Staphylococcus intermedius
Protocol: as §1

S. schleiferi c.i. = experiment: MIC/MBC broth microdilution, S. schleiferi; type: cell-based, Staphylococcus schleiferi
Protocol: as §1

S. agalactiae ATCC 27956 = experiment: MIC/MBC broth microdilution, S. agalactiae; type: cell-based, Streptococcus agalactiae; conditions: S. agalactiae
Protocol: as §1

S. pyogenes ATCC 19615 = experiment: MIC/MBC broth microdilution, S. pyogenes; type: cell-based, Streptococcus pyogenes; conditions: S. pyogenes
Protocol: as §1

fibroblasts (46BR.1N) = experiment: LDH cytotoxicity test, fibroblasts; type: cell-based; conditions: 48 h
Protocol: (§2) In our study, we used two distinct cell types: immortalized human HaCaT keratinocytes (DKFZ, Heidelberg, Germany) and a human dermal fibroblast cell line (46BR.1N). […] Cultures were maintained in a humidified atmosphere with 5% CO2 at 37 °C in 25 cm^2 culture flasks with the medium replenished every 2 days. The condition of the cells was monitored using optical microscopy.
(§3) Cell death in immortalized human keratinocytes (HaCaT) and fibroblasts (46BR.1N) was measured by quantifying the lactate dehydrogenase (LDH) activity using a commercial kit (Roche, Switzerland). Cells were seeded in 96-well plates at a density of 5000 cells per well in DMEM high glucose medium supplemented with 10% FBS. After 24 h of incubation, the medium was replaced with serum-free medium containing various concentrations of peptidomimetics (50, 100, and 150 μg/mL). After 48 h, supernatants were collected for LDH analysis. Plate readings were taken spectrophotometrically using a 450 nm wavelength. Cell death measurements were normalized to an untreated control (0%), with 1% Triton X-100 detergent used as a positive control to induce maximum LDH release, indicating maximal cytotoxicity. Statistical significance was determined with a Mann–Whitney U test with a statistical significance p ≤ 0.05. Analysis was performed with Statistica software (Krakow, Poland) and graphs were prepared in GraphPad Prism (Boston, USA).

S. mutans c.i. = experiment: MIC/MBC broth microdilution, S. mutans; type: cell-based, Streptococcus mutans
Protocol: as §1

[1] = system: immortalized human keratinocytes (HaCaT); experiment: LDH cytotoxicity test, keratinocytes; type: cell-based; conditions: 48 h
Protocol: as §2, §3

P. aeruginosa ATCC 10145 = experiment: MIC/MBC broth microdilution, P. aeruginosa; type: cell-based
Protocol: as §1

S. aureus ATCC 43300 = experiment: MIC/MBC broth microdilution, S. aureus; type: cell-based, Staphylococcus aureus; conditions: for MBC / MIC: S. aureus
S. cohnii c.i. = experiment: MIC/MBC broth microdilution, S. cohnii; type: cell-based, Staphylococcus cohnii
Protocol: as §1

[2] = system: immortalized human HaCaT keratinocytes; experiment: XTT cell proliferation assay, keratinocytes; type: cell-based
Protocol: (§4) In our study, we used two distinct cell types: immortalized human HaCaT keratinocytes (DKFZ, Heidelberg, Germany) and a human dermal fibroblast cell line (46BR.1N). […] Cultures were maintained in a humidified atmosphere with 5% CO2 at 37 °C in 25 cm^2 culture flasks with the medium replenished every 2 days. The condition of the cells was monitored using optical microscopy. […] After 24 h of incubation, the medium was replaced with serum-free HG-DMEM containing appropriate concentrations of peptidomimetics. All solutions used in the experiments were prepared with double-distilled water or with the addition of ethanol under sterile conditions to ensure compatibility with the conditions of the bacteriological assay. For 72 h of incubation, half of the medium was replaced with fresh medium after 48 h, and cells were stimulated with peptides for a second time. The XTT cell proliferation assay was then performed according to the manufacturer’s instructions (Roche, Switzerland). Cells were treated with the peptides for either 48 or 72 h, followed by the addition of XTT reagent, and the plates were then incubated at 37 °C in a 5% CO2 environment for 4 h. Plate readings were taken using a standard plate reader at a wavelength of 490 nm (OD = 490 nm). […] Statistical significance was determined with a Mann–Whitney U test with statistical significance p ≤ 0.05. Analysis was performed with Statistica software, and graphs were prepared in GraphPad Prism.

E. coli ATCC 25922 = experiment: MIC/MBC broth microdilution, E. coli; type: cell-based, Escherichia coli
Protocol: as §1

P. vulgaris ATCC 6896 = experiment: MIC/MBC broth microdilution, P. vulgaris; type: cell-based, Proteus vulgaris
Protocol: as §1

[3] = system: human dermal fibroblast cell line (46BR.1N); experiment: XTT cell proliferation assay, fibroblasts; type: cell-based
Protocol: as §4

[4] = system: K. pneumoniae ATCC 700603; experiment: MIC/MBC broth microdilution, K. pneumoniae; type: cell-based
Protocol: as §1

[5] = XTT, 48 and 72 h, 0.01–150 μg/mL
[6] = up to 150 μg/mL, A-193 and A-179 after 48 h

CC(C)C[C@H](NC(=O)[C@H](CCCNC(=N)N)NC(=O)OCc1ccccc1)C(=O)N[C@H](CNC(=O)C(=Cc1ccccc1)c1ccccc1)C(C)C [Compound A-164]
MIC (E. faecalis c.i.; H2O): 32 µg/mL (≈ 44.9 µM)
MBC (E. faecalis c.i.; water additive DMSO): 32 µg/mL (≈ 44.9 µM)
MIC (E. faecalis c.i.; water additive DMSO): 16 µg/mL (≈ 22.5 µM)
MIC (E. faecalis c.i.; water additive EtOH): 32 µg/mL (≈ 44.9 µM)
MBC (S. intemrdius c.i.; H2O): 32 µg/mL (≈ 44.9 µM)
MIC (S. intemrdius c.i.; H2O): 16 µg/mL (≈ 22.5 µM)
MBC (S. intemrdius c.i.; water additive DMSO): 8 µg/mL (≈ 11.2 µM)
MIC (S. intemrdius c.i.; water additive DMSO): 4 µg/mL (≈ 5.62 µM)
MBC (S. intemrdius c.i.; water additive EtOH): 16 µg/mL (≈ 22.5 µM)
MIC (S. intemrdius c.i.; water additive EtOH): 8 µg/mL (≈ 11.2 µM)
MBC (S. schleiferi c.i.; H2O): 16 µg/mL (≈ 22.5 µM)
MIC (S. schleiferi c.i.; H2O): 8 µg/mL (≈ 11.2 µM)
MBC (S. schleiferi c.i.; water additive DMSO): 32 µg/mL (≈ 44.9 µM)
MIC (S. schleiferi c.i.; water additive DMSO): 16 µg/mL (≈ 22.5 µM)
MBC (S. schleiferi c.i.; water additive EtOH): 8 µg/mL (≈ 11.2 µM)
MIC (S. schleiferi c.i.; water additive EtOH): 4 µg/mL (≈ 5.62 µM)
MBC (S. agalactiae ATCC 27956; H2O): 16 µg/mL (≈ 22.5 µM)
MIC (S. agalactiae ATCC 27956; H2O): 8 µg/mL (≈ 11.2 µM)
MBC (S. agalactiae ATCC 27956; water additive DMSO): 32 µg/mL (≈ 44.9 µM)
MIC (S. agalactiae ATCC 27956; water additive DMSO): 16 µg/mL (≈ 22.5 µM)
MBC (S. agalactiae ATCC 27956; water additive EtOH): 8 µg/mL (≈ 11.2 µM)
MIC (S. agalactiae ATCC 27956; water additive EtOH): 4 µg/mL (≈ 5.62 µM)
MBC (S. pyogenes ATCC 19615; H2O): 16 µg/mL (≈ 22.5 µM)
MIC (S. pyogenes ATCC 19615; H2O): 8 µg/mL (≈ 11.2 µM)
MBC (S. pyogenes ATCC 19615; water additive DMSO): 16 µg/mL (≈ 22.5 µM)
MIC (S. pyogenes ATCC 19615; water additive DMSO): 8 µg/mL (≈ 11.2 µM)
MBC (S. pyogenes ATCC 19615; water additive EtOH): 8 µg/mL (≈ 11.2 µM)
MIC (S. pyogenes ATCC 19615; water additive EtOH): 4 µg/mL (≈ 5.62 µM)
cytotoxicity (LDH), in words (fibroblasts (46BR.1N); 50-150 μg/mL): cytotoxic effects across all of the tested concentrations
concentration at which cytotoxic effect starts (fibroblasts (46BR.1N); LDH): 50 µg/mL
MIC (S. mutans c.i.; H2O): > 512 µg/mL
MIC (S. mutans c.i.; water additive DMSO): > 512 µg/mL
MIC (S. mutans c.i.; water additive EtOH): > 512 µg/mL
cytotoxicity (LDH), in words ([1]; 50-150 μg/mL): cytotoxic effects across all of the tested concentrations
concentration at which cytotoxic effect starts ([1]; LDH): 50 µg/mL
MIC (P. aeruginosa ATCC 10145; H2O): > 512 µg/mL
MIC (P. aeruginosa ATCC 10145; water additive DMSO): > 512 µg/mL
MIC (P. aeruginosa ATCC 10145; water additive EtOH): > 512 µg/mL
MBC (S. aureus ATCC 43300; H2O): 16 µg/mL (≈ 22.5 µM)
MIC (S. aureus ATCC 43300; H2O): 8 µg/mL (≈ 11.2 µM)
MBC (S. aureus ATCC 43300; water additive DMSO): 16 µg/mL (≈ 22.5 µM)
MIC (S. aureus ATCC 43300; water additive DMSO): 8 µg/mL (≈ 11.2 µM)
MBC (S. aureus ATCC 43300; water additive EtOH): 16 µg/mL (≈ 22.5 µM)
MIC (S. aureus ATCC 43300; water additive EtOH): 8 µg/mL (≈ 11.2 µM)
MIC value for S. aureus (S. aureus ATCC 43300; additive not stated): 8 µg/mL
MBC (S. cohnii c.i.; water additive DMSO): 32 µg/mL (≈ 44.9 µM)
MIC (S. cohnii c.i.; water additive DMSO): 16 µg/mL (≈ 22.5 µM)
MIC (S. cohnii c.i.; water additive EtOH): 32 µg/mL (≈ 44.9 µM)
proliferation relative to control at 50 μg/mL ([2]; XTT, 50 μg/mL): 50%
effect on proliferation, in words [2, 5]: negative impact
antiproliferative effect (decrease vs control) [2, 6]: up to 50%
MIC (E. coli ATCC 25922; H2O): > 512 µg/mL
MIC (E. coli ATCC 25922; water additive DMSO): > 512 µg/mL
MIC (E. coli ATCC 25922; water additive EtOH): > 512 µg/mL
MIC (P. vulgaris ATCC 6896; H2O): > 512 µg/mL
MIC (P. vulgaris ATCC 6896; water additive DMSO): > 512 µg/mL
MIC (P. vulgaris ATCC 6896; water additive EtOH): > 512 µg/mL
viability ([3]; 48 h, 50, 100 and 150 μg/mL): over 20%
proliferation relative to control at 50 μg/mL ([3]; XTT, 50 μg/mL): 50%
effect on proliferation, in words [3, 5]: negative impact
antiproliferative effect (decrease vs control) [3, 6]: up to 50%
MIC ([4]; H2O): > 512 µg/mL
MIC ([4]; water additive DMSO): > 512 µg/mL
MIC ([4]; water additive EtOH): > 512 µg/mL
